Laboratory results taken from patent publication USRE47193E1, “Selectively substituted quinoline compounds” (EISAI R&D MANAGEMENT CO., LTD., priority 2013, dated 2019).

These compounds were tested on Human TLR7/8 (assay: Human PBMC cell-based assay, TLR7/8 stimulus (RNA-Ig), cytokine ELISA). Settings: Hu PBMC; ligand RNA-Ig; analyte IL-6.
Summary of the method: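 Healthy-donor human PBMC, 2×10^5 cells/well (1×10^5 in later assay), pre-treated 30 min with compound (0.1% DMSO). Stimulated 20 h at 37 °C with RNA-Ig: 26-mer U1 snRNA stem loop IV phosphorothioate RNA at 2.5 μM plus anti-ssDNA antibody (1:25 or 1 ug/ml). Supernatant cytokines by ELISA.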

Structure (SMILES) | IC50 [nM]
C[C@@H]1CN(c2ccc(C#N)c3ncccc23)C[C@H](C(=O)N[C@H]2CNC[C@H]2F)O1.Cl [ER-899742, (2R,6R)-4-(8-cyanoquinolin-5-yl)-N-[(3S,4R)-4-fluoropyrrolidin-3-yl]-6-methylmorpholine-2-carboxamide hydrochloride] | 0.9

Same assay, conditions: Hu PBMC; ligand RNA-Ig; analyte IL-6; read-out: IC50

Structure (SMILES) | IC50 [nM]
CCN(CCO)CCCC(C)Nc1ccnc2cc(Cl)ccc12 (centres unmarked) [HCQ, hydroxychloroquine, reference compound] | 1000 to 2000

Same assay, conditions: RNA-Ig TLR7/8 stimulus

Structure (SMILES) | fold more potent versus HCQ
C[C@@H]1CN(c2ccc(C#N)c3ncccc23)C[C@H](C(=O)N[C@H]2CNC[C@H]2F)O1.Cl [ER-899742, (2R,6R)-4-(8-cyanoquinolin-5-yl)-N-[(3S,4R)-4-fluoropyrrolidin-3-yl]-6-methylmorpholine-2-carboxamide hydrochloride] | approximately 1000 fold

Same assay, conditions: primary human PBMC assay, TLR7/8 potency; ligand not given; read-out: Human PBMCs IC50

Structure (SMILES) | IC50 [nM]
C[C@@H]1CN(c2ccc(C#N)c3ncccc23)C[C@H](C)O1 [ER-878952] | 151
C[C@@H]1CN(c2ccc(C#N)c3ncccc23)C[C@H](CO)O1 [ER-885493, 5-((2R,6R)-2-(hydroxymethyl)-6-methylmorpholino)quinoline-8-carbonitrile] | 180
C[C@@H]1CN(c2ccc(C#N)c3ncccc23)C[C@H](CN2CC[C@H](O)C2)O1 [ER-886820] | 62
C[C@@H]1CN(c2ccc(C#N)c3ncccc23)C[C@H](CN2CCC(O)CC2)O1 [ER-886953] | 26
C[C@@H]1CN(c2ccc(C#N)c3ncccc23)C[C@H](CNC2CCCC2)O1 [ER-887145] | 15
C[C@@H]1CN(c2ccc(C#N)c3ncccc23)C[C@H](CN2CCNCC2)O1 [ER-887253] | 1
C[C@@H]1CN(C[C@H]2CN(c3ccc(C#N)c4ncccc34)C[C@@H](C)O2)CCN1 [ER-887269] | 1
CC1CNC(=O)CN1C[C@H]1CN(c2ccc(C#N)c3ncccc23)C[C@@H](C)O1 (some centres unmarked) [ER-887722] | 65
C[C@@H]1CN(c2ccc(C#N)c3ncccc23)C[C@H](CN2CCN(C)CC2)O1 [ER-887723] | 7
CCCN1CCN(C[C@H]2CN(c3ccc(C#N)c4ncccc34)C[C@@H](C)O2)CC1 [ER-887724] | 6
CC1CN(c2ccc(C#N)c3ncccc23)CC(CN2CCC(N(C)C)CC2)O1 (centres unmarked) [ER-887725] | 2
CC(=O)NC1CCN(CC2CN(c3ccc(C#N)c4ncccc34)CC(C)O2)CC1 (centres unmarked) [ER-888288] | 15
CC1CN(c2ccc(C#N)c3ncccc23)CC(CN2CCN(C)CC2C)O1 (centres unmarked) [ER-889556] | 10
CC1CN(c2ccc(C#N)c3ncccc23)CC(CN2CCC(NC(=O)C(C)C)CC2)O1 (centres unmarked) [ER-889745] | 46
CC[C@H]1CN(C[C@H]2CN(c3ccc(C#N)c4ncccc34)C[C@@H](C)O2)CCN1 [ER-890963] | 2
C[C@@H]1CN(c2ccc(C#N)c3ncccc23)C[C@H](C(=O)NC2CCN(C)CC2)O1 [ER-899464, (2R,6R)-4-(8-cyanoquinolin-5-yl)-6-methyl-N-(1-methylpiperidin-4-yl)morpholine-2-carboxamide] | 1

Same assay, conditions: read-out: Human PBMCs IC50; primary human PBMC assay, TLR7/8 potency; ligand not given

Structure (SMILES) | IC50 [nM]
C[C@@H]1CN(c2ccc(C#N)c3ncccc23)C[C@H](C(=O)N[C@H]2CNC[C@H]2F)O1.Cl [ER-899742, (2R,6R)-4-(8-cyanoquinolin-5-yl)-N-[(3S,4R)-4-fluoropyrrolidin-3-yl]-6-methylmorpholine-2-carboxamide hydrochloride] | 1
